Experiments:
[1] = normal temperature and normal pressure; also printed as 1.6 mg/L; cited from earlier work
[2] = tested on: injured nerve cells of the spinal cord / spinal cord-injured animal model; conditions: high-concentration hydrogen of, for example, 50% or more; X. Chen 2018, C. Chen 2010; cited from earlier work
[3] = tested on: symptoms of cervical spine/cervical cord injury
Description: They restored consciousness about a week after the accident.
Immediately before inhalation of hydrogen gas 6 years after the accident, they went to work in the afternoon 4 or 5 days a week, and stayed at home throughout a day when they felt ill. Further, they occasionally saw a doctor of psychiatry.
About 6 years after the accident, the patient underwent inhalation of hydrogen (hydrogen inhalation equipment: MHG-2000a Type, hydrogen concentration: 6 to 7.5%, hydrogen gas production rate: 140 mL/min, MiZ Company Limited (Kanagawa, Japan) over a period from Oct. 4, 2018 to May 12, 2019. Hydrogen was aspirated twice a day, once in the morning and once in the afternoon, for a total of 2 to 7.5 hours (an average of 3.3 hours a day), and as symptoms, pain, disordered sleep, decreased appetite, physical fatigue, mental fatigue, nervous fatigue, burning sensation on the back and foot spasticity were evaluated on Face Pain Scale (FPS; scale: 0 to 5) for about 7 months.
The FAS scales in FIGS. 1 to 5 indicate how the state changed after inhalation as compared to the state before inhalation. […] In FIGS. 1 to 5, the number of scores (e.g. 0 to 3) was counted for each of the periods, and the ratio (%) of the scores in each item was calculated. In the diagrams, the numbers shown outside the table represent the total numbers of respective scores.
Further, on May 13, 2019, the patient started inhalation of hydrogen using hydrogen gas inhalation equipment for professional use (hydrogen concentration: 6 to 7.5%, hydrogen gas production rate: 1,120 mL/min, MiZ Company Limited) instead of the hydrogen inhalation equipment MHG-2000a Type.
FIGS. 1 to 5 show the results of counting over a period from Oct. 4, 2018 to Feb. 14, 2019.
The patient recorded the FAS scores as well as their feeling before and after inhalation on paper record forms as will be described below.

[4] = compared with H2; stated as known; cited from earlier work

Row | Compound | concentration of hydrogen dissolved in water [1] | nerve cells of the spinal cord [2] | oxidative stress [2] | FAS “4” and FAS “5” scores ([3]; Oct. 4, 2018 to Feb. 14, 2019, all items, hydrogen 6 to 7.5%, 140 mL/min) | improvement in pain, sleep, appetite, physical fatigue, mental fatigue and nervous fatigue (Face Pain Scale scores) ([3]; Oct. 4 to Oct. 31, 2018, inhalation, hydrogen 6 to 7.5%, 140 mL/min, average 3.3 hours a day, FAS 0 and 1 scores recorded) | improvement in sensation on the back and improvement in foot spasticity (Face Pain Scale scores) ([3]; Oct. 4 to Oct. 31, 2018, inhalation, hydrogen 6 to 7.5%, 140 mL/min, FAS 2 and 3 scores, occasionally 1) | Face Pain Scale scores, all items, before against after inhalation ([3]; from May 13, 2019, equipment for professional use, hydrogen 6 to 7.5%, 1,120 mL/min) | ratio of FAS “1” scores ([3]; in and after November 2018, against inhalation time, hydrogen 6 to 7.5%, 140 mL/min) | FAS score recorded in any of the items ([3]; on and after Dec. 1, 2018, continuous inhalation, hydrogen 6 to 7.5%, 140 mL/min, scale 0 to 5) | body temperature and sweating reported by the patient ([3]; record May 13, 2019, equipment 1,120 mL/min, hydrogen 6 to 7.5%) | patient's recorded feeling (spasticity, peripheral nerve, metabolism, flow of blood, induction of sleep) ([3]; record May 13, 2019, equipment 1,120 mL/min, hydrogen 6 to 7.5%, compared with before) | superoxide eliminating action [4]
1 | [HH] [hydrogen gas, molecular hydrogen] | about 1.6 ppm | the nerve cells of the spinal cord were protected | oxidative stress was suppressed | not recorded at all | good improvement tendency | the improvement tendency was unknown or became worse | improvement occurred in all the items | tended to increase as the inhalation time increased | 3 | the body temperature rises, and thus sweating cannot be stopped | a more potent effect is exhibited | 
2 | [2H][2H] [D2, deuterium] |  |  |  |  |  |  |  |  |  |  |  | higher than that of H2

— patent US20200384013A1, “COMPOSITION FOR IMPROVEMENT OF SYMPTOMS OF SPINAL CORD INJURY” (MiZ Company Limited, priority 2019, published 2020)
